We go through 15 compounds from article PMC2665923 (Journal of medicinal chemistry, 2009).

Molecules are shown by their SMILES. “Also recorded” adds a separate entry of the source.

The subject of series [1] is pancreatic cancer cells (MiaPaCa-2, BXPC3, HupT3). The note with it: BXPC3, HupT3 and MiaPaCa-2; shown earlier; cited from earlier work.
Series [2] shares this test system. Put plainly: Pancreatic cancer cell proliferation. Type of series: cell-based. The note with it: for antiproliferative activity in pancreatic cancer cells: MiaPaCa-2, BXPC3, HupT3.
Another series in a line: Storage stability at rt. Type of series: physicochemical. Conditions: few weeks at rt.
Series [3] deals with GSK-3β activity (phosphorylation of glycogen synthase). Put plainly: Western immunoblot of glycogen synthase phosphorylation in cells. Type of series: cell-based. The note with it: BXPC3, 5 and 26 at 5 μM, 6-36 h, 27 at 5, 10, 20 μM. Background: Immunoblotting shows a protein as a band on a membrane.
In series [4] the test system is NFκB-mediated expression of XIAP. Put plainly: Western immunoblot of XIAP expression. Type of series: cell-based. Conditions: BXPC3; 5 and 26 at 5 μM; 27 up to 20 μM.
Series [5] relates to BXPC3 and HupT3 pancreatic cancer cells. Put plainly: Apoptosis by Hoechst staining. The series is classed as cell-based. The note with it: 5 (5 μM), 26 (5 μM), 27 (20 μM), 36 h.

Regarding `Cn1cc(C2=C(c3ccc(Cl)cc3Cl)C(=O)NC2=O)c2ccccc21` [Compound 78], the “pancreatic cancer cell proliferation” value in series [1] is recorded as “significant decrease”.
With `Cn1cc(C2=C(c3coc4ccccc34)C(=O)NC2=O)c2cc(F)c(Cl)cc21` [Compound 6, 3-Benzofuran-3-yl-4-(6-chloro-5-fluoro-1-methyl-1H-indol-3-yl)-pyrrole-2,5-dione], the “antiproliferative activity in pancreatic cancer cells” value (shortened to “antiproliferative activity”) in series [2] was “good antiproliferative activity”.
Same read-out and setting: the result for `Cn1cc(C2=C(c3coc4ccccc34)C(=O)NC2=O)c2cc(Br)ccc21` [Compound 13] reads “little or no inhibitory activity”.
`Cn1cc(C2=C(c3coc4cc(O)ccc34)C(=O)NC2=O)c2cc(F)ccc21` [Compound 4, 3-(5-Fluoro-1-methyl-1H-indol-3-yl)-4-(6-hydroxy-benzofuran-3-yl)-pyrrole-2,5-dione]: the stability on storage result in “Storage stability at rt” is “Partially degradated after few weeks at rt”.
With `Cn1cc(C2=C(c3coc4ccc(F)cc34)C(=O)NC2=O)c2cc3c(cc21)OCO3` [Compound 26, 3-(5-Fluoro-benzofuran-3-yl)-4-(5-methyl-5H-[1,3]dioxolo[4,5-f]indol-7-yl)-pyrrole-2,5-dione], the “GSK-3β activity in cells (GS phosphorylation)” value (from here on “GSK-3β activity in cells”) in series [3] was “effectively inhibited”. Besides, the “NFκB-mediated expression of XIAP” value in series [4] is reported as “pronounced decrease”. In series [5], the “apoptosis / survival of pancreatic cancer cells” value (shortened to “apoptosis / survival”) was “significant apoptosis”. Further, the “antiproliferative activity” value in series [2] is listed as “good antiproliferative activity”.
In the case of `Cn1cc(C2=C(c3coc4ccc(F)cc34)C(=O)NC2=O)c2cc(C#CC3CC3)ccc21` [Compound 25, 3-(5-Cyclopropylethynyl-1-methyl-1H-indol-3-yl)-4-(5-fluoro-benzofuran-3-yl)-pyrrole-2,5-dione], the “antiproliferative activity” value in series [2] is reported as “little or no inhibitory activity”.
With `C#CCOc1ccc2c(C3=C(c4cn(C)c5ccc(Br)cc45)C(=O)NC3=O)coc2c1` [Compound 16, 3-(5-Bromo-1-methyl-1H-indol-3-yl)-4-(6-prop-2-ynyloxy-benzofuran-3-yl)-pyrrole-2,5-dione], the stability on storage entry in the series “Storage stability at rt” is on record as “Partially degradated after few weeks at rt”.
Consider `COc1ccc(CNC(=O)Nc2ncc([N+](=O)[O-])s2)cc1` [Compound 77], for which the “pancreatic cancer cell proliferation” value in series [1] is on record as “significant decrease”.
Turning to `COc1cccc2c(C3=C(c4cn(C)c5c(Br)cc(Br)cc45)C(=O)NC3=O)coc12` [Compound 20, 3-(5,7-Dibromo-1-methyl-1H-indol-3-yl)-4-(7-methoxy-benzofuran-3-yl)-pyrrole-2,5-dione], in series [2], the “antiproliferative activity” value was “good antiproliferative activity”.
Same read-out and setting: the result for `Cn1cc(C2=C(c3coc4ccc(F)cc34)C(=O)NC2=O)c2cc(I)ccc21` [Compound 22, 3-(5-Fluoro-benzofuran-3-yl)-4-(5-iodo-1-methyl-1H-indol-3-yl)-pyrrole-2,5-dione] reads “little or no inhibitory activity”.
For the compound `COc1cc2c(C3=C(c4coc5ccccc45)C(=O)NC3=O)cn(C)c2cc1Cl` [Compound 27, 3-Benzofuran-3-yl-4-(6-chloro-5-methoxy-1-methyl-1H-indol-3-yl)-pyrrole-2,5-dione], in series [3], the “GSK-3β activity in cells” value is given as “did not affect”. Further, the “NFκB-mediated expression of XIAP” value in series [4] is “no such effect”. Further, in series [5], the “apoptosis / survival” value is listed as “did not affect”. Also, the “antiproliferative activity” value in series [2] is listed as “did not affect; also recorded: little or no inhibitory activity”.
On to `COCc1cccc2c(C3=C(c4coc5ccccc45)C(=O)NC3=O)cn(C)c12` [Compound 33, 3-Benzofuran-3-yl-4-(7-methoxymethyl-1-methyl-1H-indol-3-yl)-pyrrole-2,5-dione], for which the “antiproliferative activity” value in series [2] is reported as “little or no inhibitory activity”.
In the case of `COc1cccc2c(C3=C(c4cn(C)c5cc(Cl)c(F)cc45)C(=O)NC3=O)coc12` [Compound 11, 3-(6-Chloro-5-fluoro-1-methyl-1H-indol-3-yl)-4-(7-methoxy-benzofuran-3-yl)-pyrrole-2,5-dione], in series [2], the “antiproliferative activity” value is on record as “good antiproliferative activity”.
As for `Cn1cc(C2=C(c3coc4ccccc34)C(=O)NC2=O)c2cc(I)ccc21` [Compound 21, 3-Benzofuran-3-yl-4-(5-iodo-1-methyl-1H-indol-3-yl)-pyrrole-2,5-dione], the “antiproliferative activity” value in series [2] is recorded as “little or no inhibitory activity”.
Regarding `COc1cccc2c(C3=C(c4cn(C)c5cc(I)c(F)cc45)C(=O)NC3=O)coc12` [Compound 5, 3-(5-Fluoro-6-iodo-1-methyl-1H-indol-3-yl)-4-(7-methoxy-benzofuran-3-yl)-pyrrole-2,5-dione], in series [3], the “GSK-3β activity in cells” value is “effectively inhibited”. In addition, the “NFκB-mediated expression of XIAP” value in series [4] was “pronounced decrease”. Further, the “apoptosis / survival” value in series [5] is “significant apoptosis”. Also, the “antiproliferative activity” value in series [2] was “good antiproliferative activity”. For the same compound, the “concentrations showing significant anticancer activity” value in series [2] (pancreatic cancer cells) was in the range of 1 to 5 µM.
